In patent US20250114342A1, “APIXABAN ORAL LIQUID DOSAGE FORMS” (Shilpa Medicare Limited, priority 2023, published 2025):
Where two headings read alike, the source gives them in different places.

Legend:
[1] = cited from earlier work
[2] = Drug-excipients compatibility study (thermal stability); format: physicochemical
Experimental: Amounts of apixaban and other components identified here were determined chromatographically, e.g., High Performance Liquid Chromatograph (HPLC). Amounts of apixaban related substances identified here were also determined chromatographically, e.g., High Performance Liquid Chromatograph (HPLC).

Any individual unspecified impurity ([2]; 15 Days 60° C. Close Vial): 0.03 % w/w
Related substances: Acid Impurity ([2]; 15 Days 60° C. Close Vial): 0.02 % w/w
Total impurities ([2]; 15 Days 60° C. Close Vial): 0.07 % w/w
Any individual unspecified impurity ([2]; 30 Days 25° C. Close Vial): 0.03 % w/w
Related substances: Acid Impurity ([2]; 30 Days 25° C. Close Vial): 0.01 % w/w
Total impurities ([2]; 30 Days 25° C. Close Vial): 0.07 % w/w
Any individual unspecified impurity ([2]; 30 Days 25° C. Open Vial): 0.02 % w/w
Related substances: Acid Impurity ([2]; 30 Days 25° C. Open Vial): 0.02 % w/w
Total impurities ([2]; 30 Days 25° C. Open Vial): 0.07 % w/w
Any individual unspecified impurity ([2]; 30 Days 40° C. Close Vial): 0.03 % w/w
Related substances: Acid Impurity ([2]; 30 Days 40° C. Close Vial): 0.02 % w/w
Total impurities ([2]; 30 Days 40° C. Close Vial): 0.09 % w/w
Any individual unspecified impurity ([2]; 30 Days 40° C. Open Vial): 0.03 % w/w
Related substances: Acid Impurity ([2]; 30 Days 40° C. Open Vial): 0.02 % w/w
Total impurities ([2]; 30 Days 40° C. Open Vial): 0.09 % w/w
Any individual unspecified impurity ([2]; Initial): 0.02 % w/w
Related substances: Acid Impurity ([2]; Initial): 0.01 % w/w
Total impurities ([2]; Initial): 0.06 % w/w
SMILES: COc1ccc(-n2nc(C(N)=O)c3c2C(=O)N(c2ccc(N4CCCCC4=O)cc2)CC3)cc1 [apixaban, 1-(4-methoxyphenyl)-7-oxo-6-[4-(2-oxopiperidin-1-yl)phenyl]-4,5,6,7-tetrahydro-1H-pyrazolo[3,4-c]pyridine-3-carboxamide]
solubility ([1]; 2 mg of apixaban, 100% propylene glycol, 20° C.): partially soluble
solubility ([1]; higher amount of apixaban, 40% propylene glycol+60% glycerol, 20° C.): insoluble
solubility ([1]; higher amount of apixaban, 40% propylene glycol+60% glycerol, 40° C.): gets dissolved
